{
  "source": "paper PMC4917279",
  "about": "(Journal of Medicinal Chemistry, 2016)",
  "key": {"[1]": {"target": "T1, RPS6KA4(Kin.Dom.1-N-terminal) (Homo sapiens, UniProt O75676)", "T1 construct": "RPS6KA4(Kin.Dom.1-N-terminal); purchased DiscoveRx KINOMEscan", "assay": "KINOMEscan", "type": "binding", "conditions": "read-out: %Ctrl @ 1000 nM"}, "[2]": {"target": "T2, TYK2(JH2domain-pseudokinase) (Homo sapiens, UniProt P29597)", "T2 construct": "TYK2(JH2domain-pseudokinase); purchased DiscoveRx KINOMEscan", "assay": "KINOMEscan", "type": "binding", "conditions": "read-out: %Ctrl @ 1000 nM"}, "KIT(V559D)": {"target": "T3, KIT(V559D) (Homo sapiens, UniProt P10721, V559D)", "T3 construct": "purchased DiscoveRx KINOMEscan", "T3 sequence (P10721 26-976 V559D)": "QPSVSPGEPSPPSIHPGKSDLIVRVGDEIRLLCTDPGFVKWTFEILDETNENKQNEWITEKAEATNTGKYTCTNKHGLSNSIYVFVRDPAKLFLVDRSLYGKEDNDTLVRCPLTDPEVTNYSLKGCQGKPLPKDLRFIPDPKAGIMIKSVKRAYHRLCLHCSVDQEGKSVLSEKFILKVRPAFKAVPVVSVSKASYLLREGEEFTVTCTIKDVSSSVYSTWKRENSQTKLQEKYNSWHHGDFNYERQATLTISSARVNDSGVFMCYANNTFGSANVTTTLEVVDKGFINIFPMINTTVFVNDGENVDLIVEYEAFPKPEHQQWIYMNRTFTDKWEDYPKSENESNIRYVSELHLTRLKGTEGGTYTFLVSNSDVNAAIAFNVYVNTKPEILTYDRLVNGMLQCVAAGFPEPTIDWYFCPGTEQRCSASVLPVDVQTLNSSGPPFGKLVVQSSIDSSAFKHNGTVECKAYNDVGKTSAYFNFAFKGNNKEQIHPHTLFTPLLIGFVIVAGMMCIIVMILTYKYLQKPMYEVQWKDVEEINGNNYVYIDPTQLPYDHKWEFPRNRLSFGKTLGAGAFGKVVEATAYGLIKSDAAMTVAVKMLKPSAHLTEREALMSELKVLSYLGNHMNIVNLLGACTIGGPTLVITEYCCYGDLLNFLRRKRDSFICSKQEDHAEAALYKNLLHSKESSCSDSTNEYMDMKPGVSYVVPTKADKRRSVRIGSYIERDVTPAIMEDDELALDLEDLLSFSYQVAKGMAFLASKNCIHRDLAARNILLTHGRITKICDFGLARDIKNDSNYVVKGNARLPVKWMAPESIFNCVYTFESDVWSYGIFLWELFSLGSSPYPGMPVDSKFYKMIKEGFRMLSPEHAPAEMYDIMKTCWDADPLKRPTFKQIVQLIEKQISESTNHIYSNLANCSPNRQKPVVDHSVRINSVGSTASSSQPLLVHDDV", "assay": "KINOMEscan", "type": "binding", "conditions": "read-out: %Ctrl @ 1000 nM"}, "ARK5": {"target": "T4, ARK5 (Homo sapiens, UniProt O60285)", "T4 construct": "purchased DiscoveRx KINOMEscan", "assay": "KINOMEscan", "type": "binding", "conditions": "read-out: %Ctrl @ 1000 nM"}, "[3]": {"target": "T5, ABL1(F317L)-phosphorylated (Homo sapiens, UniProt P00519, F317L)", "T5 construct": "purchased DiscoveRx (KINOMEscan service)", "assay": "KINOMEscan", "type": "binding", "conditions": "read-out: %Ctrl @ 1000 nM"}, "ZAP70": {"target": "T6, ZAP70 (Homo sapiens, UniProt P43403)", "T6 construct": "purchased DiscoveRx", "assay": "KINOMEscan", "type": "binding", "conditions": "read-out: %Ctrl @ 1000 nM"}, "KIT(A829P)": {"target": "T7, KIT(A829P) (Homo sapiens, UniProt P10721, A829P)", "T7 construct": "purchased DiscoveRx KINOMEscan", "T7 sequence (P10721 26-976 A829P)": "as the sequence (P10721 26-976 V559D) above, with D534V, A804P counted along it", "assay": "KINOMEscan", "type": "binding", "conditions": "read-out: %Ctrl @ 1000 nM"}, "FLT3(N841I)": {"target": "T8, FLT3(N841I) (Homo sapiens, UniProt P36888, N841I)", "T8 construct": "purchased DiscoveRx KINOMEscan", "assay": "KINOMEscan", "type": "binding", "conditions": "read-out: %Ctrl @ 1000 nM"}, "ALK(C1156Y)": {"target": "T9, ALK(C1156Y) (Homo sapiens, UniProt Q9UM73, C1156Y)", "T9 construct": "purchased DiscoveRx KINOMEscan", "assay": "KINOMEscan", "type": "binding", "conditions": "read-out: %Ctrl @ 1000 nM"}, "NEK1": {"target": "T10, NEK1 (Homo sapiens, UniProt Q96PY6)", "T10 construct": "purchased DiscoveRx KINOMEscan", "assay": "KINOMEscan", "type": "binding", "conditions": "read-out: %Ctrl @ 1000 nM"}, "MST1": {"target": "T11, MST1 (Homo sapiens, UniProt Q13043)", "T11 construct": "purchased DiscoveRx KINOMEscan", "assay": "KINOMEscan", "type": "binding", "conditions": "read-out: %Ctrl @ 1000 nM"}, "GRK7": {"target": "T12, GRK7 (Homo sapiens, UniProt Q8WTQ7)", "T12 construct": "purchased DiscoveRx KINOMEscan", "assay": "KINOMEscan", "type": "binding", "conditions": "read-out: %Ctrl @ 1000 nM"}, "FLT1": {"target": "T13, FLT1 (Homo sapiens, UniProt P17948)", "T13 construct": "purchased DiscoveRx KINOMEscan", "assay": "KINOMEscan", "type": "binding", "conditions": "read-out: %Ctrl @ 1000 nM"}, "RIPK2": {"target": "T14, RIPK2 (Homo sapiens, UniProt O43353)", "T14 construct": "purchased DiscoveRx KINOMEscan", "assay": "KINOMEscan", "type": "binding", "conditions": "read-out: %Ctrl @ 1000 nM"}, "CASK": {"target": "T15, CASK (Homo sapiens, UniProt O14936)", "T15 construct": "purchased DiscoveRx KINOMEscan", "assay": "KINOMEscan", "type": "binding", "conditions": "read-out: %Ctrl @ 1000 nM"}, "CDKL2": {"target": "T16, CDKL2 (Homo sapiens, UniProt Q92772)", "T16 construct": "purchased DiscoveRx KINOMEscan", "assay": "KINOMEscan", "type": "binding", "conditions": "read-out: %Ctrl @ 1000 nM"}, "[4]": {"target": "T17, ABL1(M351T)-phosphorylated (Homo sapiens, UniProt P00519, M351T)", "T17 construct": "purchased DiscoveRx (KINOMEscan service)", "assay": "KINOMEscan", "type": "binding", "conditions": "read-out: %Ctrl @ 1000 nM"}, "CSNK2A1": {"target": "T18, CSNK2A1 (Homo sapiens, UniProt P68400)", "T18 construct": "purchased DiscoveRx KINOMEscan", "assay": "KINOMEscan", "type": "binding", "conditions": "read-out: %Ctrl @ 1000 nM"}, "SGK": {"target": "T19, SGK (Homo sapiens, UniProt O00141)", "T19 construct": "purchased DiscoveRx KINOMEscan", "assay": "KINOMEscan", "type": "binding", "conditions": "read-out: %Ctrl @ 1000 nM"}, "SMYD2": {"target": "SMYD2 (Homo sapiens, UniProt Q9NRG4)", "sequence (Q9NRG4 whole entry)": "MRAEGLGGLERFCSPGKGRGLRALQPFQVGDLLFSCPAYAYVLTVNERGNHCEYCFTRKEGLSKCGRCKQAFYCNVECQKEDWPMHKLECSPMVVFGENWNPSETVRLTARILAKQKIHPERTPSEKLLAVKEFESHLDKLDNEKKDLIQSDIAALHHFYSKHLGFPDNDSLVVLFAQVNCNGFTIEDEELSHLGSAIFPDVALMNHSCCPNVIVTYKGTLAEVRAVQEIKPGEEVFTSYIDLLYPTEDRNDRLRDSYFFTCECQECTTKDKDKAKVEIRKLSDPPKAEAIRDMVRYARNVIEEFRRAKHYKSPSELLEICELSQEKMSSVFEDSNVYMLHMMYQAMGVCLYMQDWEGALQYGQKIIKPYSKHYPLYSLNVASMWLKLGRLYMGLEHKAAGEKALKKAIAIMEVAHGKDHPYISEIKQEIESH", "assay": "Western blot of SY46 methylation signal in SMYD2 overexpressing KYSE150 cells, time course", "type": "cell-based", "design": "expressed in transfected cells", "conditions": "10 µM", "from_the_text": "3. Figure S2 Validation of AHNAK as SMYD2 substrate\nFigure S2 (A) Overexpression of SMYD2 in KYSE.150 cells. SMYD2 is primarily detected in the cytosol. One SMYD2 overexpressing and one non.overexpressing cell are highlighted by arrows. The methylation signal detected by SY46 is overlapping with the SMYD2 overexpressing cells (B) Western blot analysis of SMYD2 overexpressing or parental KYSE150 cells. SY46 methylation antibody detects a strong increase in methylation signal in the high molecular weight region in SMYD2 overexpressing cells. (Later we discovered AHNAK as the high molecular substrate of around 630 kDa. Due to the high molecular weight of AHNAK and partial degradation different fragments are detected.) (C) Western blot analysis of SMYD2 overexpressing KYSE150 cells treated with DMSO or 10 µM of either AZ505 or (S).4 and harvested after the indicated time points. The methylation signal detected by SY46 was reduced in a time dependent manner. (D) Only expression of SMYD2 leads to specific methylation signals detected by SY46. Western blot analysis of a transient overexpression of wildtype (SMYD2WT /SMYD3WT) or enzymatically point mutants (SMYD2H207A/SMYD3N205A) of either SMYD2 or SMYD3 in MDA.MB231 or HeLa cells. Only in SMYD2WT cells a methylation signal is detected. Expression of green fluorescence protein (GFP) was used as control (E) […]"}, "EGFR(T790M)": {"target": "T20, EGFR(T790M) (Homo sapiens, UniProt P00533, T790M)", "T20 construct": "purchased DiscoveRx KINOMEscan", "assay": "KINOMEscan", "type": "binding", "conditions": "read-out: %Ctrl @ 1000 nM"}, "PIK3CA(I800L)": {"target": "T21, PIK3CA(I800L) (Homo sapiens, UniProt P42336, I800L)", "T21 construct": "purchased DiscoveRx KINOMEscan", "T21 sequence (P42336 whole entry I800L)": "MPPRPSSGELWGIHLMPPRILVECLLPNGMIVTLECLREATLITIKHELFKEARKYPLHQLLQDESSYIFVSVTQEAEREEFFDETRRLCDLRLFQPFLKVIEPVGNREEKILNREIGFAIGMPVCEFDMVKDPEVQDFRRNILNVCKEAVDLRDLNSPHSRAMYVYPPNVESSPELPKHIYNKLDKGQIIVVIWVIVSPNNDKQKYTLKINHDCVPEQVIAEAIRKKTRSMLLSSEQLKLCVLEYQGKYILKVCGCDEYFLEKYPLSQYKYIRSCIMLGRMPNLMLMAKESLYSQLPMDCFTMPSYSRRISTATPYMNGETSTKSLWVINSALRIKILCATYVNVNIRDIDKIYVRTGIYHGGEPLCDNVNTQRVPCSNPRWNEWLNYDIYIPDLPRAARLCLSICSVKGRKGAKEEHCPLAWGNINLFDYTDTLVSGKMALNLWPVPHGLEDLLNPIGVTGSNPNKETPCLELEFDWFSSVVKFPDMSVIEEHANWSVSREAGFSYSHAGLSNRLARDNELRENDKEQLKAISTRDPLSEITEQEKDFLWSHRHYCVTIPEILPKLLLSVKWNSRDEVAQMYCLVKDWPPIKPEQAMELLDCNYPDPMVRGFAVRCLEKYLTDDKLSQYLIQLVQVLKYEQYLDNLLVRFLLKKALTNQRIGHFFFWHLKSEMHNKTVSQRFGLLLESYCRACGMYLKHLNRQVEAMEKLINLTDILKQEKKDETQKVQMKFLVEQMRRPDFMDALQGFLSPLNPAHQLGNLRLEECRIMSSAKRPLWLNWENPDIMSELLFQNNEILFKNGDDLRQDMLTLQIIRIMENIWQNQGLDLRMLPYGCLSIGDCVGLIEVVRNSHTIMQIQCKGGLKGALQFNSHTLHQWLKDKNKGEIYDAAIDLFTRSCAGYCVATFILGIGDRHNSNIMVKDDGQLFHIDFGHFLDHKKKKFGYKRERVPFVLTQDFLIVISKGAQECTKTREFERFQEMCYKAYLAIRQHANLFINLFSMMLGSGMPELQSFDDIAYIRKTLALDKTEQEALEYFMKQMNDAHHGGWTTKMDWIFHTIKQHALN", "assay": "KINOMEscan", "type": "binding", "conditions": "read-out: %Ctrl @ 1000 nM"}, "LKB1": {"target": "T22, LKB1 (Homo sapiens, UniProt Q15831)", "T22 construct": "purchased DiscoveRx KINOMEscan", "assay": "KINOMEscan", "type": "binding", "conditions": "read-out: %Ctrl @ 1000 nM"}, "MUSK": {"target": "T23, MUSK (Homo sapiens, UniProt O15146)", "T23 construct": "purchased DiscoveRx KINOMEscan", "assay": "KINOMEscan", "type": "binding", "conditions": "read-out: %Ctrl @ 1000 nM"}, "PIK3CA(E545K)": {"target": "T24, PIK3CA(E545K) (Homo sapiens, UniProt P42336, E545K)", "T24 construct": "purchased DiscoveRx KINOMEscan", "T24 sequence (P42336 whole entry E545K)": "as the sequence (P42336 whole entry I800L) above, with E545K, L800I counted along it", "assay": "KINOMEscan", "type": "binding", "conditions": "read-out: %Ctrl @ 1000 nM"}, "MEK4": {"target": "T25, MEK4 (Homo sapiens, UniProt P45985)", "T25 construct": "purchased DiscoveRx KINOMEscan", "T25 sequence (P45985 whole entry)": "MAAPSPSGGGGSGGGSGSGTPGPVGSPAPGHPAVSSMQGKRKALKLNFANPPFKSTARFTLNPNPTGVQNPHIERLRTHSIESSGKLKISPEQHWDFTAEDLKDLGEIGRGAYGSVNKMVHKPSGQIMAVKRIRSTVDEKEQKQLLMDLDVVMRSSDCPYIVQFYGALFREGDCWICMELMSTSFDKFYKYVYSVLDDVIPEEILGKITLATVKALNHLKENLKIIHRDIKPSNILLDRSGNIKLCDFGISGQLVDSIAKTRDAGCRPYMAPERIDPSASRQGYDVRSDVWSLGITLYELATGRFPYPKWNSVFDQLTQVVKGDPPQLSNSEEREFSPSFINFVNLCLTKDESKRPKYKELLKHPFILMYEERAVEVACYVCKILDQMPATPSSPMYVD", "assay": "KINOMEscan", "type": "binding", "conditions": "read-out: %Ctrl @ 1000 nM"}, "PIK4CB": {"target": "T26, PIK4CB (Homo sapiens, UniProt Q9UBF8)", "T26 construct": "purchased DiscoveRx KINOMEscan", "assay": "KINOMEscan", "type": "binding", "conditions": "read-out: %Ctrl @ 1000 nM"}, "WEE2": {"target": "T27, WEE2 (Homo sapiens, UniProt P0C1S8)", "T27 construct": "purchased DiscoveRx KINOMEscan", "assay": "KINOMEscan", "type": "binding", "conditions": "read-out: %Ctrl @ 1000 nM"}, "NIM1": {"target": "T28, NIM1 (Homo sapiens, UniProt Q8IY84)", "T28 construct": "purchased DiscoveRx KINOMEscan", "T28 sequence (Q8IY84 whole entry)": "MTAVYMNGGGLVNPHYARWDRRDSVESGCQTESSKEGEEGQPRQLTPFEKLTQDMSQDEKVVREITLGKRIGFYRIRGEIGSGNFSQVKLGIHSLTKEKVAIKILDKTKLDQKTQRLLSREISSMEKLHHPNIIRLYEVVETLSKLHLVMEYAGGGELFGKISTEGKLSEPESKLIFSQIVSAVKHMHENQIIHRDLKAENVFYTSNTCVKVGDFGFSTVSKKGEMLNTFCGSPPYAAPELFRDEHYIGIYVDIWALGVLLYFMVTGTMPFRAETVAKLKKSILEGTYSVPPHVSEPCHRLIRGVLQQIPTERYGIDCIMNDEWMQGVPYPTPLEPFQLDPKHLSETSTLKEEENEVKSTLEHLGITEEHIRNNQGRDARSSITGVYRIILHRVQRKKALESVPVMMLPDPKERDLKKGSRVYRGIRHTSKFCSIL", "assay": "KINOMEscan", "type": "binding", "conditions": "read-out: %Ctrl @ 1000 nM"}, "PCTK2": {"target": "T29, PCTK2 (Homo sapiens, UniProt Q00537)", "T29 construct": "purchased DiscoveRx KINOMEscan", "assay": "KINOMEscan", "type": "binding", "conditions": "read-out: %Ctrl @ 1000 nM"}, "p38-alpha": {"target": "T30, p38-alpha (Homo sapiens, UniProt Q16539)", "T30 construct": "purchased DiscoveRx KINOMEscan", "assay": "KINOMEscan", "type": "binding", "conditions": "read-out: %Ctrl @ 1000 nM"}, "YES": {"target": "T31, YES (Homo sapiens, UniProt P07947)", "T31 construct": "purchased DiscoveRx KINOMEscan", "T31 sequence (P07947 whole entry)": "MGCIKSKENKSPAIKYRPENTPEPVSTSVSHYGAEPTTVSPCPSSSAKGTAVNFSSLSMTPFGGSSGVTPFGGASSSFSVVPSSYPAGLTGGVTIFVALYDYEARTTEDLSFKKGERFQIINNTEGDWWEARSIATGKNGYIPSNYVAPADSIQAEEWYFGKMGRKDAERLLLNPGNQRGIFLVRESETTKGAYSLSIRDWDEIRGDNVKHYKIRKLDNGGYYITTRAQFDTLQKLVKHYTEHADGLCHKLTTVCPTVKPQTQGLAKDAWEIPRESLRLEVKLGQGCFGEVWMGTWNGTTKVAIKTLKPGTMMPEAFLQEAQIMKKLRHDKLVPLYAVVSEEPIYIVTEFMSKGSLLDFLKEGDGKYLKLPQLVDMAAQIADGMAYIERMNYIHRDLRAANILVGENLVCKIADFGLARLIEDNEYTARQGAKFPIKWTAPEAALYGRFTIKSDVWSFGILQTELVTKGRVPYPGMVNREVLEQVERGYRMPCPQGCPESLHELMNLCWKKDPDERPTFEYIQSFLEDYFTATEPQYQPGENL", "assay": "KINOMEscan", "type": "binding", "conditions": "read-out: %Ctrl @ 1000 nM"}, "TIE1": {"target": "T32, TIE1 (Homo sapiens, UniProt P35590)", "T32 construct": "purchased DiscoveRx KINOMEscan", "T32 sequence (P35590 22-1138)": "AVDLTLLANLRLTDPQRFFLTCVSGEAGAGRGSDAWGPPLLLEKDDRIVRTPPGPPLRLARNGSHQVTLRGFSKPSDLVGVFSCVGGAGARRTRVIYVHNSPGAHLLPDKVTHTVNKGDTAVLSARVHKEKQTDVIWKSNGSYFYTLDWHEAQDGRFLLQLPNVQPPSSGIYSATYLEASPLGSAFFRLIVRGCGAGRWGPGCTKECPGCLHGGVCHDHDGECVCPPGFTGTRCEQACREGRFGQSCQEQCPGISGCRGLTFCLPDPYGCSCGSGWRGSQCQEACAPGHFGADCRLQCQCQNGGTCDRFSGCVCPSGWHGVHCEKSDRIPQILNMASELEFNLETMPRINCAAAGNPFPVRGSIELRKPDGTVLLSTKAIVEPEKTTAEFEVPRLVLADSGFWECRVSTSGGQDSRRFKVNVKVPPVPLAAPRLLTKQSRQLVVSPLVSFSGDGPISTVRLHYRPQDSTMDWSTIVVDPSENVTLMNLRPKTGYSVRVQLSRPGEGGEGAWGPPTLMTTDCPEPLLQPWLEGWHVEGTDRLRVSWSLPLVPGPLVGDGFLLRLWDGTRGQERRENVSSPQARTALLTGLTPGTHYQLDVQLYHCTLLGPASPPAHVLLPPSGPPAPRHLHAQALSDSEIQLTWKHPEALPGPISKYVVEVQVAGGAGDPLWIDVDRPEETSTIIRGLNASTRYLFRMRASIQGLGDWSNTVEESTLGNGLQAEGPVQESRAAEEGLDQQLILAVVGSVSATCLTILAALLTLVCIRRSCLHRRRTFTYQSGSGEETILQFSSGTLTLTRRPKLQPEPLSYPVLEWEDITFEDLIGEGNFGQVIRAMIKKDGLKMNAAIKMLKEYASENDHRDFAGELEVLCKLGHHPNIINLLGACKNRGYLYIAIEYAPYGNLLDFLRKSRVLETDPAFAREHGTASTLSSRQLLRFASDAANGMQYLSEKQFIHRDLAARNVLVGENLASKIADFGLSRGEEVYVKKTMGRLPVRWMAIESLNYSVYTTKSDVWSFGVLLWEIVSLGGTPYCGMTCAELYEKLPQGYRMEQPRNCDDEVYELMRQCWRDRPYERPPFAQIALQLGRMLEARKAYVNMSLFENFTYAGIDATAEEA", "assay": "KINOMEscan", "type": "binding", "conditions": "read-out: %Ctrl @ 1000 nM"}},
  "data": [
    {"molecule": "CCN(C(=O)CO)[C@H]1CN(/C(=N\\C#N)Nc2cccc(OC(F)F)c2)N=C1c1ccc(Cl)c(Cl)c1", "note": "[(S)-4]", "values": [
      {"measurement": "remaining binding at 1 µM", "setting": "[1]", "result": 100, "unit": "%"},
      {"measurement": "remaining binding at 1 µM", "setting": "[2]", "result": 95, "unit": "%"},
      {"measurement": "remaining binding at 1 µM", "setting": "KIT(V559D)", "result": 99, "unit": "%"},
      {"measurement": "remaining binding at 1 µM", "setting": "ARK5", "result": 100, "unit": "%"},
      {"measurement": "remaining binding at 1 µM", "setting": "[3]", "result": 93, "unit": "%"},
      {"measurement": "remaining binding at 1 µM", "setting": "ZAP70", "result": 100, "unit": "%"},
      {"measurement": "remaining binding at 1 µM", "setting": "KIT(A829P)", "result": 98, "unit": "%"},
      {"measurement": "remaining binding at 1 µM", "setting": "FLT3(N841I)", "result": 95, "unit": "%"},
      {"measurement": "remaining binding at 1 µM", "setting": "ALK(C1156Y)", "result": 100, "unit": "%"},
      {"measurement": "remaining binding at 1 µM", "setting": "NEK1", "result": 93, "unit": "%"},
      {"measurement": "remaining binding at 1 µM", "setting": "MST1", "result": 68, "unit": "%"},
      {"measurement": "remaining binding at 1 µM", "setting": "GRK7", "result": 100, "unit": "%"},
      {"measurement": "remaining binding at 1 µM", "setting": "FLT1", "result": 95, "unit": "%"},
      {"measurement": "remaining binding at 1 µM", "setting": "RIPK2", "result": 75, "unit": "%"},
      {"measurement": "remaining binding at 1 µM", "setting": "CASK", "result": 61, "unit": "%"},
      {"measurement": "remaining binding at 1 µM", "setting": "CDKL2", "result": 100, "unit": "%"},
      {"measurement": "remaining binding at 1 µM", "setting": "[4]", "result": 91, "unit": "%"},
      {"measurement": "remaining binding at 1 µM", "setting": "CSNK2A1", "result": 78, "unit": "%"},
      {"measurement": "remaining binding at 1 µM", "setting": "SGK", "result": 100, "unit": "%"},
      {"measurement": "Methylation signal detected by SY46", "setting": "SMYD2", "result": "reduced"},
      {"measurement": "remaining binding at 1 µM", "setting": "EGFR(T790M)", "result": 86, "unit": "%"},
      {"measurement": "remaining binding at 1 µM", "setting": "PIK3CA(I800L)", "result": 90, "unit": "%"},
      {"measurement": "remaining binding at 1 µM", "setting": "LKB1", "result": 83, "unit": "%"},
      {"measurement": "remaining binding at 1 µM", "setting": "MUSK", "result": 97, "unit": "%"},
      {"measurement": "remaining binding at 1 µM", "setting": "PIK3CA(E545K)", "result": 71, "unit": "%"},
      {"measurement": "remaining binding at 1 µM", "setting": "MEK4", "result": 100, "unit": "%"},
      {"measurement": "remaining binding at 1 µM", "setting": "PIK4CB", "result": 100, "unit": "%"},
      {"measurement": "remaining binding at 1 µM", "setting": "WEE2", "result": 100, "unit": "%"},
      {"measurement": "remaining binding at 1 µM", "setting": "NIM1", "result": 100, "unit": "%"},
      {"measurement": "remaining binding at 1 µM", "setting": "PCTK2", "result": 91, "unit": "%"},
      {"measurement": "remaining binding at 1 µM", "setting": "p38-alpha", "result": 86, "unit": "%"},
      {"measurement": "remaining binding at 1 µM", "setting": "YES", "result": 100, "unit": "%"},
      {"measurement": "remaining binding at 1 µM", "setting": "TIE1", "result": 99, "unit": "%"}
    ]}
  ]
}
